Source: patent publication US8802597B2, “Herbicidal pyrimidines” (E I du Pont de Nemours and Company, priority 2003, dated 2014)

How the values were obtained:
Assay in all cases: Test C pre/postemergence
Assay type in all cases: in vivo
[1] = system: velvetleaf (Abutilon theophrasti); settings: for Plant response rating (scale of 0 to 100), Velvetleaf / Velvetleaf plant response rating: Postemergence; for Velvetleaf plant response rating: scale 0 to 100 (0 no effect, 100 complete control); for Plant response rating, Velvetleaf: Preemergence
Summary of the method: (§1)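 Percent control is a visual rating (0 none, 100 complete) taken against untreated plants after 12 to 14 days of greenhouse growth. Applications were made preemergence to seeded pots and postemergence to plants at the 1- to 4-leaf stage, in a non-phytotoxic surfactant-containing solvent.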

[2] = system: giant foxtail (Setaria faberii); settings: for Plant response rating (scale of 0 to 100), Foxtail, Giant / Foxtail, Giant plant response rating: Postemergence; for Foxtail, Giant plant response rating: scale 0 to 100 (0 no effect, 100 complete control); for Plant response rating, Foxtail, Giant: Preemergence
Summary of the method: as §1

[3] = system: soybean (Glycine max); settings: for Plant response rating (scale of 0 to 100), Soybean / Soybean plant response rating: Postemergence; for Soybean plant response rating: scale 0 to 100 (0 no effect, 100 complete control); for Plant response rating, Soybean: Preemergence
Summary of the method: as §1

[4] = system: bermudagrass (Cynodon dactylon)
Summary of the method: as §1

[5] = system: common ragweed (Ambrosia elatior); settings: for Plant response rating (scale of 0 to 100), Ragweed / Ragweed plant response rating: Postemergence; for Ragweed plant response rating: scale 0 to 100 (0 no effect, 100 complete control); for Plant response rating, Ragweed: Preemergence
Summary of the method: as §1

[6] = system: morningglory (Ipomoea coccinea); settings: for Morningglory plant response rating: scale 0 to 100 (0 no effect, 100 complete control); for Plant response rating, Morningglory: Preemergence
Summary of the method: as §1

[7] = system: lambsquarters (Chenopodium album); settings: for Plant response rating (scale of 0 to 100), Lambsquarters / Lambsquarters plant response rating: Postemergence; for Lambsquarters plant response rating: scale 0 to 100 (0 no effect, 100 complete control); for Plant response rating, Lambsquarters: Preemergence
Summary of the method: as §1

[8] = system: yellow nutsedge (Cyperus esculentus); settings: for Plant response rating (scale of 0 to 100), Nutsedge, Yellow / Nutsedge, Yellow plant response rating: Postemergence; for Nutsedge, Yellow plant response rating: scale 0 to 100 (0 no effect, 100 complete control); for Plant response rating, Nutsedge, Yellow: Preemergence
Summary of the method: as §1

[9] = system: woolly cupgrass (Eriochloa villosa); settings: for Plant response rating (scale of 0 to 100), Cupgrass, Woolly / Cupgrass, Woolly plant response rating: Postemergence; for Cupgrass, Woolly plant response rating: scale 0 to 100 (0 no effect, 100 complete control); for Plant response rating, Cupgrass, Woolly: Preemergence
Summary of the method: as §1

[10] = system: eastern black nightshade (Solanum ptycanthum); settings: Preemergence
Summary of the method: as §1

[11] = system: goosegrass (Eleusine indica); settings: for Plant response rating (scale of 0 to 100), Goosegrass / Goosegrass plant response rating: Postemergence; for Goosegrass plant response rating: scale 0 to 100 (0 no effect, 100 complete control); for Plant response rating, Goosegrass: Preemergence
Summary of the method: as §1

[12] = system: Surinam grass (Brachiaria decumbens); settings: for Plant response rating, Surinam Grass: Preemergence
Summary of the method: as §1

[13] = 16 g ai/ha, scale 0 to 100, 0 no effect, 100 complete control
[14] = 31 g ai/ha, scale 0 to 100, 0 no effect, 100 complete control
[15] = 62 g ai/ha, scale 0 to 100, 0 no effect, 100 complete control
[16] = Postemergence, 62 g ai/ha, scale 0 to 100 (0 no effect, 100 complete control)

`COC(=O)c1nc(C2CC2)nc(N=CN(C)C)c1Br` [Compound 19] was tested, and the “Plant response rating (scale of 0 to 100), Velvetleaf” value ([1]; 16 g ai/ha) was 30, the “Plant response rating (scale of 0 to 100), Velvetleaf” value ([1]; 31 g ai/ha) was 40 and the “Velvetleaf plant response rating” value ([1]; 62 g ai/ha) was 50. For the same compound, the “Velvetleaf plant response rating” value ([1]; 125 g ai/ha) was 60, the “Plant response rating, Velvetleaf” value [1, 13] was 25 and the “Plant response rating, Velvetleaf” value [1, 14] was 35. For the same compound, the “Plant response rating, Velvetleaf” value [1, 15] was 40, the “Plant response rating, Velvetleaf” value ([1]; 125 g ai/ha, scale 0 to 100) was 65 and the “Plant response rating (scale of 0 to 100), Foxtail, Giant” value ([2]; 16 g ai/ha) was 0. For the same compound, the “Plant response rating (scale of 0 to 100), Foxtail, Giant” value ([2]; 31 g ai/ha) was 5, the “Foxtail, Giant plant response rating” value ([2]; 62 g ai/ha) was 40 and the “Foxtail, Giant plant response rating” value ([2]; 125 g ai/ha) was 55. For the same compound, the “Plant response rating, Foxtail, Giant” value [2, 13] was 0, the “Plant response rating, Foxtail, Giant” value [2, 14] was 0 and the “Plant response rating, Foxtail, Giant” value [2, 15] was 0. For the same compound, the “Plant response rating, Foxtail, Giant” value ([2]; 125 g ai/ha, scale 0 to 100) was 0, the “Plant response rating (scale of 0 to 100), Soybean” value ([3]; 16 g ai/ha) was 45 and the “Plant response rating (scale of 0 to 100), Soybean” value ([3]; 31 g ai/ha) was 55. The “Soybean plant response rating” value ([3]; 62 g ai/ha) was 75, the “Soybean plant response rating” value ([3]; 125 g ai/ha) was 75 and the “Plant response rating, Soybean” value [3, 13] was 0. For the same compound, the “Plant response rating, Soybean” value [3, 14] was 25, the “Plant response rating, Soybean” value [3, 15] was 85 and the “Plant response rating, Soybean” value ([3]; 125 g ai/ha, scale 0 to 100) was 90. For the same compound, the “Plant response rating (scale of 0 to 100), Bermudagrass” value ([4]; Postemergence, 16 g ai/ha) was 0, the “Plant response rating (scale of 0 to 100), Bermudagrass” value ([4]; Postemergence, 31 g ai/ha) was 5 and the “Bermudagrass plant response rating” value [4, 16] was 30. The “Plant response rating, Bermudagrass” value ([4]; Postemergence, 125 g ai/ha, scale 0 to 100) was 45, the “Plant response rating, Bermudagrass” value ([4]; Preemergence, 16 g ai/ha, scale 0 to 100, 0 no effect, 100 complete control) was 0 and the “Plant response rating, Bermudagrass” value ([4]; Preemergence, 31 g ai/ha, scale 0 to 100, 0 no effect, 100 complete control) was 0. For the same compound, the “Plant response rating, Bermudagrass” value ([4]; Preemergence, 62 g ai/ha, scale 0 to 100, 0 no effect, 100 complete control) was 0, the “Plant response rating, Bermudagrass” value ([4]; Preemergence, 125 g ai/ha, scale 0 to 100) was 0 and the “Plant response rating (scale of 0 to 100), Ragweed” value ([5]; 16 g ai/ha) was 35. The “Plant response rating (scale of 0 to 100), Ragweed” value ([5]; 31 g ai/ha) was 40, the “Ragweed plant response rating” value ([5]; 62 g ai/ha) was 70 and the “Ragweed plant response rating” value ([5]; 125 g ai/ha) was 80. For the same compound, the “Plant response rating, Ragweed” value [5, 13] was 55, the “Plant response rating, Ragweed” value [5, 14] was 55 and the “Plant response rating, Ragweed” value [5, 15] was 70. The “Plant response rating, Ragweed” value ([5]; 125 g ai/ha, scale 0 to 100) was 80, the “Plant response rating (scale of 0 to 100), Morningglory” value ([6]; Postemergence, 31 g ai/ha) was 55 and the “Morningglory plant response rating” value ([6]; Postemergence, 62 g ai/ha) was 80. The “Morningglory plant response rating” value ([6]; Postemergence, 125 g ai/ha) was 85, the “Plant response rating, Morningglory” value [6, 13] was 10 and the “Plant response rating, Morningglory” value [6, 14] was 10. For the same compound, the “Plant response rating, Morningglory” value [6, 15] was 90, the “Plant response rating, Morningglory” value ([6]; 125 g ai/ha, scale 0 to 100) was 90 and the “Plant response rating (scale of 0 to 100), Lambsquarters” value ([7]; 16 g ai/ha) was 70. The “Plant response rating (scale of 0 to 100), Lambsquarters” value ([7]; 31 g ai/ha) was 90, the “Lambsquarters plant response rating” value ([7]; 62 g ai/ha) was 90 and the “Lambsquarters plant response rating” value ([7]; 125 g ai/ha) was 95. The “Plant response rating, Lambsquarters” value [7, 13] was 75, the “Plant response rating, Lambsquarters” value [7, 14] was 100 and the “Plant response rating, Lambsquarters” value [7, 15] was 100. The “Plant response rating, Lambsquarters” value ([7]; 125 g ai/ha, scale 0 to 100) was 100, the “Plant response rating (scale of 0 to 100), Nutsedge, Yellow” value ([8]; 16 g ai/ha) was 0 and the “Plant response rating (scale of 0 to 100), Nutsedge, Yellow” value ([8]; 31 g ai/ha) was 0. For the same compound, the “Nutsedge, Yellow plant response rating” value ([8]; 62 g ai/ha) was 0, the “Nutsedge, Yellow plant response rating” value ([8]; 125 g ai/ha) was 0 and the “Plant response rating, Nutsedge, Yellow” value [8, 13] was 0. The “Plant response rating, Nutsedge, Yellow” value [8, 14] was 0, the “Plant response rating, Nutsedge, Yellow” value [8, 15] was 0 and the “Plant response rating, Nutsedge, Yellow” value ([8]; 125 g ai/ha, scale 0 to 100) was 0. The “Plant response rating (scale of 0 to 100), Cupgrass, Woolly” value ([9]; 16 g ai/ha) was 0, the “Plant response rating (scale of 0 to 100), Cupgrass, Woolly” value ([9]; 31 g ai/ha) was 25 and the “Cupgrass, Woolly plant response rating” value ([9]; 62 g ai/ha) was 65. The “Cupgrass, Woolly plant response rating” value ([9]; 125 g ai/ha) was 65, the “Plant response rating, Cupgrass, Woolly” value [9, 13] was 0 and the “Plant response rating, Cupgrass, Woolly” value [9, 14] was 0. The “Plant response rating, Cupgrass, Woolly” value [9, 15] was 0, the “Plant response rating, Cupgrass, Woolly” value ([9]; 125 g ai/ha, scale 0 to 100) was 0 and the “Plant response rating, Nightshade” value [10, 13] was 0. The “Plant response rating, Nightshade” value [10, 14] was 40, the “Plant response rating, Nightshade” value [10, 15] was 100 and the “Plant response rating, Nightshade” value ([10]; 125 g ai/ha, scale 0 to 100) was 100. For the same compound, the “Plant response rating (scale of 0 to 100), Goosegrass” value ([11]; 16 g ai/ha) was 0, the “Plant response rating (scale of 0 to 100), Goosegrass” value ([11]; 31 g ai/ha) was 0 and the “Goosegrass plant response rating” value ([11]; 62 g ai/ha) was 0. For the same compound, the “Goosegrass plant response rating” value ([11]; 125 g ai/ha) was 0, the “Plant response rating, Goosegrass” value [11, 13] was 0 and the “Plant response rating, Goosegrass” value [11, 14] was 0. The “Plant response rating, Goosegrass” value [11, 15] was 0, the “Plant response rating, Goosegrass” value ([11]; 125 g ai/ha, scale 0 to 100) was 0 and the “Plant response rating (scale of 0 to 100), Surinam Grass” value ([12]; Postemergence, 16 g ai/ha) was 0. The “Plant response rating (scale of 0 to 100), Surinam Grass” value ([12]; Postemergence, 31 g ai/ha) was 25, the “Surinam Grass plant response rating” value [12, 16] was 45 and the “Plant response rating, Surinam Grass” value [12, 13] was 0. For the same compound, the “Plant response rating, Surinam Grass” value [12, 15] was 0 and the “Plant response rating, Surinam Grass” value ([12]; 125 g ai/ha, scale 0 to 100) was 10.
